Measurements taken from US10077241B2 (Janssen Pharmaceutica NV, priority 2014, dated 2018).
Counter-ions that a name gives are not always drawn.

What was measured:
[1] = biological target: T1, TGR5 (NCI-H716 cell line) (Homo sapiens, UniProt Q8TDU6); assay: NCI-H716 cAMP Agonist EC50 Determination
T1 sequence (Q8TDU6 1-330): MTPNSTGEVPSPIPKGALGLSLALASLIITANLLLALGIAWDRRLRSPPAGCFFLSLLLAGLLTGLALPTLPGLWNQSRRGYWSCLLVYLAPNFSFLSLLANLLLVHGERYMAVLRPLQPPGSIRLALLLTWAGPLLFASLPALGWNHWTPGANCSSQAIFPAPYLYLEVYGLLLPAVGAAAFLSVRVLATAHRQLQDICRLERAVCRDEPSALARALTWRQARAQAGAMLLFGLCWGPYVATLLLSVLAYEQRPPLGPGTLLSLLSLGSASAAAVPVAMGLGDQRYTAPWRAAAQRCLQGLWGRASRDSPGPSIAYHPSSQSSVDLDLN

TGR5 (STC1 cell line) = biological target: T2, TGR5 (STC1 cell line) (Mus musculus, UniProt Q80SS6); assay: STC1 cAMP Agonist EC50 Determination
T2 sequence (Q80SS6 1-329): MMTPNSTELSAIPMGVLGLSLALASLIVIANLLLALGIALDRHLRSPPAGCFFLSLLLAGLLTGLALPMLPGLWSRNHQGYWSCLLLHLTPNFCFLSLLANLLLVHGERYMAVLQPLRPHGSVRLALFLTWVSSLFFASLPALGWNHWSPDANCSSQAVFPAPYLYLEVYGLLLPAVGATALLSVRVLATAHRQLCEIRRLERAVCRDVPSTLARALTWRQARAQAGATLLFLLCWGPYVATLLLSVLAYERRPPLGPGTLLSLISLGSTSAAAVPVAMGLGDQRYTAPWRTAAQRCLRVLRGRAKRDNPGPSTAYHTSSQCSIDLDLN

| EC50 [1] | EC50 (TGR5 (STC1 cell line)) | Compound |
| --- | --- | --- |
| 3.6 µM | 0.2 µM | COc1ccc(C2(C)CCCc3nc(SCc4c(F)cc(Br)cc4F)n(-c4ccc(F)cc4)c32)cc1OC (centres unmarked) [Example 109, 2-((4-bromo-2,6-difluorobenzyl)thio)-7-(3,4-dimethoxyphenyl)-1-(4-fluorophenyl)-7-methyl-4,5,6,7-tetrahydro-1H-benzo[d]imidazole] |
| > 50 µM | 0.45 µM | COc1cc(C2CCCc3nc(SCc4ncccc4F)n(-c4ccc(F)cc4)c32)ccc1Cl (centres unmarked) [Example 52, 2-((3-fluoropyridin-2-yl)methylthio)-7-(4-chloro-3-methoxyphenyl)-1-(4-fluorophenyl)-4,5,6,7-tetrahydro-1H-benzo[d]imidazole trifluoroacetic acid] |
| > 50 µM | 2.76 µM | COCCOCCOCCOCCNC(=O)c1cc(F)c(CSc2nc3c(n2-c2ccc(F)cc2)C(c2ccc(F)c(OC)c2)CCC3)c(F)c1 (centres unmarked) [Example 75, 3,5-difluoro-4-(((7-(4-fluoro-3-methoxyphenyl)-1-(4-fluorophenyl)-4,5,6,7-tetrahydro-1H-benzo[d]imidazol-2-yl)thio)methyl)-N-(2,5,8,11-tetraoxatridecan-13-yl)benzamide] |
| 1.41 µM | 0.2 µM | COc1ccc(C2(C)CCCc3nc(SCc4c(F)cc(CCN(C)C)cc4F)n(-c4ccc(F)cc4)c32)cc1OC (centres unmarked) [Example 111, 2-(4-(((7-(3,4-dimethoxyphenyl)-1-(4-fluorophenyl)-7-methyl-4,5,6,7-tetrahydro-1H-benzo[d]imidazol-2-yl)thio)methyl)-3,5-difluorophenyl)-N,N-dimethylethanamine] |
| > 50 µM | 3.11 µM | COc1cc(C2(C)CCCc3nc(SCc4c(F)cc(-c5nnn[nH]5)cc4F)n(-c4ccc(F)cc4)c32)ccc1F (centres unmarked) [Example 121, 2-((2,6-difluoro-4-(1H-tetrazol-5-yl)benzyl)thio)-7-(4-fluoro-3-methoxyphenyl)-1-(4-fluorophenyl)-7-methyl-4,5,6,7-tetrahydro-1H-benzo[d]imidazole] |
| > 50 µM | 3.9 µM | COc1cc(C2(C)CCCc3nc(SCc4c(F)cc(-c5nn[nH]n5)cc4F)n(-c4ccc(F)cc4)c32)ccc1Cl (centres unmarked) [Example 90, 7-(4-chloro-3-methoxyphenyl)-2-(2,6-difluoro-4-(2H-tetrazol-5-yl)benzylthio)-1-(4-fluorophenyl)-7-methyl-4,5,6,7-tetrahydro-1H-benzo[d]imidazole trifluoroacetic acid] |
| > 50 µM | 0.35 µM | C/N=C(\N)N/N=C/CCc1cc(F)c(CSc2nc3c(n2-c2ccc(F)cc2)C(c2ccc(Cl)c(OC)c2)CCC3)c(F)c1 (centres unmarked) [Example 48, (1E,2E)-2-(3-(4-((7-(4-chloro-3-methoxyphenyl)-1-(4-fluorophenyl)-4,5,6,7-tetrahydro-1H-benzo[d]imidazol-2-ylthio)methyl)-3,5-difluorophenyl)propylidene)-N′-methylhydrazinecarboximidamide hydrochloride] |
| > 50 µM | 4.41 µM | COc1cc(C2CCCc3nc(SCc4c(Cl)cncc4Cl)n(-c4ccc(F)cc4)c32)ccc1Cl (centres unmarked) [Example 54] |
| > 50 µM | 2.08 µM | COc1cc(C2(C)CCCc3nc(SCc4c(F)cc(C#N)cc4F)n(-c4ccc(F)cc4)c32)ccc1Cl (centres unmarked) [Example 89, 4-((7-(4-chloro-3-methoxyphenyl)-1-(4-fluorophenyl)-7-methyl-4,5,6,7-tetrahydro-1H-benzo[d]imidazol-2-ylthio)methyl)-3,5-difluorobenzonitrile trifluoroacetic acid] |
| > 50 µM | 1.36 µM | CCOC(=O)CCc1cc(F)c(CSc2nc3c(n2-c2ccc(F)cc2)C(c2ccc(Cl)c(OC)c2)CCC3)c(F)c1 (centres unmarked) [Example 40, Ethyl 3-(4-((7-(4-chloro-3-methoxyphenyl)-1-(4-fluorophenyl)-4,5,6,7-tetrahydro-1H-benzo[d]imidazol-2-ylthio)methyl)-3,5-difluorophenyl)propanoate trifluoroacetic acid] |
| > 50 µM | 0.96 µM | COc1cc(C2CCCc3nc(SCc4c(F)cc(OCc5nnn[nH]5)cc4F)n(-c4ccc(F)cc4)c32)ccc1Cl (centres unmarked) [Example 30, 7-(4-chloro-3-methoxyphenyl)-2-([[2,6-difluoro-4-(1H-1,2,3,4-tetrazol-5-ylmethoxy)phenyl]methyl]sulfanyl)-1-(4-fluorophenyl)-4,5,6,7-tetrahydro-1H-1,3-benzodiazole] |
| 18.8 µM | 0.09 µM | COc1cc(C2(C)CCCc3nc(SCc4c(F)cc(C(=O)N5CCOCC5)cc4F)n(-c4ccc(F)cc4)c32)ccc1F (centres unmarked) [Example 122, (3,5-difluoro-4-(((7-(4-fluoro-3-methoxyphenyl)-1-(4-fluorophenyl)-7-methyl-4,5,6,7-tetrahydro-1H-benzo[d]imidazol-2-yl)thio)methyl)phenyl) (morpholino)methanone] |
| > 50 µM | 3.89 µM | COc1cc(C2CC(C)Cc3nc(SCc4c(F)cccc4Cl)n(-c4ccc(F)cc4)c32)ccc1Cl (centres unmarked) [Example 61, 7-(4-chloro-3-methoxyphenyl)-2-[[(2-chloro-6-fluorophenyl)methyl]sulfanyl]-1-(4-fluorophenyl)-5-methyl-4,5,6,7-tetrahydro-1H-1,3-benzodiazole] |
| 18.1 µM | 0.12 µM | COc1cc(C2(C)CCCc3nc(SCc4c(F)cc(C(=O)N(C)C)cc4F)n(-c4ccc(F)cc4)c32)ccc1Cl (centres unmarked) [Example 92, 4-([[7-(4-chloro-3-methoxyphenyl)-1-(4-fluorophenyl)-7-methyl-4,5,6,7-tetrahydro-1H-1,3-benzodiazol-2-yl]sulfanyl]methyl)-3,5-difluoro-N,N-dimethylbenzamide] |
| > 50 µM | 9.86 µM | COc1cc(C2CCCc3nc(SCc4c(F)cccc4Cl)n(-c4ccc(F)c(F)c4F)c32)ccc1Cl (centres unmarked) [Example 9, 7-(4-chloro-3-methoxyphenyl)-2-((2-chloro-6-fluorobenzyl)thio)-1-(2,3,4-trifluorophenyl)-4,5,6,7-tetrahydro-1H-benzo[d]imidazole] |
| > 50 µM | 0.65 µM | COc1cc(C2CCCc3nc(SCc4ncccn4)n(-c4ccc(F)cc4)c32)ccc1Cl (centres unmarked) [Example 57, 7-(4-chloro-3-methoxyphenyl)-1-(4-fluorophenyl)-2-[(pyrimidin-2-ylmethyl)sulfanyl]-4,5,6,7-tetrahydro-1H-1,3-benzodiazole trifluoroacetic acid] |
| 11 µM | 3.84 µM | Cc1nc2ccc(C3OCCc4nc(SCc5c(F)cccc5Cl)n(-c5ccc(F)cc5)c43)cc2o1 (centres unmarked) [Example 135, 2-((2-chloro-6-fluorobenzyl)thio)-3-(4-fluorophenyl)-4-(2-methylbenzo[d]oxazol-6-yl)-3,4,6,7-tetrahydropyrano[3,4-d]imidazole] |
| > 50 µM | 1.18 µM | COc1cc(C2(C)CCCc3nc(SCc4c(F)cc(C(=O)O)cc4F)n(-c4ccc(F)cc4)c32)ccc1F (centres unmarked) [Example 120, 3,5-difluoro-4-(((7-(4-fluoro-3-methoxyphenyl)-1-(4-fluorophenyl)-7-methyl-4,5,6,7-tetrahydro-1H-benzo[d]imidazol-2-yl)thio)methyl)benzoic acid] |
| > 50 µM | 28.6 µM | COCCOCCOCCOCCNC(=O)c1cc(F)c(CSc2nc3c(n2-c2ccc(F)cc2)C(c2cc(OC)c(OC)c(Br)c2Br)CCC3)c(F)c1 (centres unmarked) [Example 68b, 4-(((7-(2,3-dibromo-4,5-dimethoxyphenyl)-1-(4-fluorophenyl)-4,5,6,7-tetrahydro-1H-benzo[d]imidazol-2-yl)thio)methyl)-3,5-difluoro-N-(2,5,8,11-tetraoxatridecan-13-yl) benzamide] |
| 35.2 µM | 0.91 µM | COc1cccc(C2CCCc3nc(SCc4c(F)cncc4F)n(-c4ccc(F)c(OC)c4)c32)c1 (centres unmarked) [Example 72, 2-(((3,5-difluoropyridin-4-yl)methyl)thio)-1-(4-fluoro-3-methoxyphen)-7-(3-methoxyphenyl)-4,5,6,7-tetrahydro-1H-benzo[d]imidazole] |
| > 50 µM | 1.39 µM | COc1cc(C2CCCc3nc(SCc4c(F)cc(CCC(=O)O)cc4F)n(-c4ccc(F)cc4)c32)ccc1Cl (centres unmarked) [Example 44, 3-(4-((7-(4-chloro-3-methoxyphenyl)-1-(4-fluorophenyl)-4,5,6,7-tetrahydro-1H-benzo[d]imidazol-2-ylthio)methyl)-3,5-difluorophenyl)propanoic acid trifluoroacetic acid] |
| > 50 µM | 16.3 µM | COc1cc(C2CCCc3nc(SCc4c(F)cc(CCCN(C)C)cc4F)n(-c4ccc(F)cc4)c32)ccc1Cl (centres unmarked) [Example 39b, 3-(4-((7-(4-chloro-3-methoxyphenyl)-1-(4-fluorophenyl)-4,5,6,7-tetrahydro-1H-benzo[d]imidazol-2-ylthio)methyl)-3,5-difluorophenyl)-N,N-dimethylpropan-1-amine trifluoroacetic acid] |
